Source: patent publication US20250248979A1, “NOVEL GPX4 INHIBITORS AND USES THEREOF” (THE TRUSTEES OF COLUMBIA UNIVERSITY IN THE CITY OF NEW YORK, priority 2022, published 2025)
≈ marks a conversion by molar mass, not a printed value. Where two headings read alike, the source gives them in different places.

Legend:
HT-1080 cells = assay: Cellular dose response assay, HT-1080 with and without Fer-1; format: cell-based, human; conditions: for Selectivity: ferroptosis selectivity; for ferroptosis induction / potency in HT-1080 cells, result in words: RSL3 as control
Summary of the method: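 Cells were seeded at 1500 per well, grown overnight, then treated in triplicate with 12-point 2-fold compound dilutions (0.4% DMSO final) for 48 h at 37 °C, 5% CO2. HT-1080 series were run with and without Fer-1. Viability was read by CellTiter-Glo luminescence.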

in vitro [1] = format: in vitro ADME, human; conditions: human, microsomes
Protocol: (§1) […]. The incubation timepoints measured were 0, 5, 10, 15, 30, and 45 minutes. All samples were prepared in duplicate and analyzed by LC-MS/MS.

in vitro [2] = format: in vitro ADME, mouse; conditions: mouse, microsomes
Protocol: as §1

[3] = not given; remark: listed apart in the source
GPX4 = biological target: T1, GPX4 (Homo sapiens, UniProt P36969); assay: GPX4 activity assay in cell lysates (NADPH-coupled); format: biochemical; set-up: endogenous in cells; host or cells: A-673 cell lysate; conditions: for GPX4% inhibition at 20 (μM) / GPX4% inhibition at 200 (μM): generation 2; for GPX4 inhibition / GPX4% inhibition at 200 (μM): 200 μM
T1 sequence (P36969 1-170 isoform P36969-2): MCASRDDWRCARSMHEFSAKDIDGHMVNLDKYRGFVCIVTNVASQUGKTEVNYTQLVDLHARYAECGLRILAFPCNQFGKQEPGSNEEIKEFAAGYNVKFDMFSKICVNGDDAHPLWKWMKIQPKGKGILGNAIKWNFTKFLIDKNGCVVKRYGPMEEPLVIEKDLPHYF
Summary of the method: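 Native GPX4 in lysates of A-673 cells grown with 20 nM sodium selenite; lysate preincubated with compound 45 min at 37 °C in pH 8.0 buffer with 3 mM GSH, 0.5 mM NADPH and glutathione reductase. Reaction started with phosphatidylcholine hydroperoxide; NADPH consumption followed at 340 nm over 25 min; triplicates.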

HepG2 cells = assay: Cellular dose response assay, HepG2; format: cell-based, human; conditions: Table 7
Text: (§2) HT-1080 (human [Homo sapiens] […] fibrosarcoma), A-673 (human [Homo sapiens] […] Ewing's sarcoma), and SK-HEP-1 (human [Homo sapiens] […] hepatic adenocarcinoma), cells were obtained from ATCC. Huh7 (human [Homo sapiens] […] hepatocellular carcinoma), HLF (human [Homo sapiens] […] hepatocellular carcinoma), HepG2 (human [Homo sapiens] […] hepatocellular carcinoma), cells were obtained from the Cancer Cell Bank at Columbia University Irving Medical Center. HT-1080, A-673, Huh-7, and HLF cells were grown in Dulbecco's Modified Eagle Medium (DMEM) supplemented with 10% heat inactivated fetal bovine serum (HI-FBS), 1% non-essential amino acids, and 1% penicillin streptomycin. HepG2 and SK-HEP-1 cells were grown in Eagle's Minimum Essential Medium (EMEM) supplemented with 10% HI-FBS, and 1% penicillin-streptomycin. All cells were cultured at 37° C. and 5% CO2.
(§3) HT-1080, HepG2, Huh7, HLF, and SK-HEP-1 cells were seeded into opaque white 384-well plates at 1500 cells per well then incubated at 37° C. with 5% CO2 overnight. The next day, compounds of interest were dissolved in DMSO and 12-point 2-fold dilution series were prepared with and without Fer-1. Cells were treated in triplicate (final DMSO concentration of 0.4% in all wells, including DMSO-only control wells) and incubated for a further 48 hours at 37° C. and 5% CO2. Cell viability was evaluated using CellTiter-Glo (Promega G7573) and luminescence was recorded on a Victor 5 plate reader. Data were analyzed in GraphPad Prism 9 and error bars represent standard deviation values for three technical replicates in a representative experiment.

Huh7 cells = assay: Cellular dose response assay, Huh7; format: cell-based, human; conditions: Table 7
Text: as §2, §3

HLF cells = assay: Cellular dose response assay, HLF; format: cell-based, human; conditions: Table 7
Text: as §2, §3

SK-HEP-1 cells = assay: Cellular dose response assay, SK-HEP-1; format: cell-based, human; conditions: Table 7
Text: as §2, §3

[4] = Kinetic aqueous solubility
[5] = system: DTP cells derived from PC9; assay: Drug-tolerant persister cell model, DTP cells; conditions: for % Viability Persister: 48 hours
[6] = HT1080 + Fer-1, read-out: IC50 (uM) HT1080 + Fer-1
[7] = HT1080, without Fer-1, read-out: IC50 (uM) HT1080
[8] = compounds alone, Table 7, read-out: IC50 (uM) HT1080^a
[9] = with fer-1, Table 7, read-out: IC50 (uM) HT1080^b
[10] = compounds alone, read-out: IC50 (uM) HEPG2^a
[11] = with fer-1, read-out: IC50 (uM) HEPG2^b
[12] = compounds alone, read-out: IC50 (uM) Huh7^a
[13] = with fer-1, read-out: IC50 (uM) Huh7^b
[14] = compounds alone, read-out: IC50 (uM) SKHEP1^a
[15] = with fer-1, read-out: IC50 (uM) SKHEP1^b
[16] = 1% DMSO, Phosphate Buffered Saline pH 7.4, 1 hour, ambient, UV/Vis absorbance

Compound	IC50 (HT-1080 cells; [6])	IC50 (HT-1080 cells; [7])	Selectivity (HT-1080 cells; HT1080 + Fer-1 vs HT1080)	Microsome Stability t1/2 (min) human (in vitro [1])	Microsome Stability t1/2 (min) mouse (in vitro [2])	Plasma Stability t1/2 (min) human	Plasma Stability t1/2 (min) mouse [3]	GPX4% inhibition at 2.5 μM (GPX4)	Solubility ([4]; aqueous solubility, Table 9)	further results
CC(OC(=O)CCl)C(C)(C)NC(=O)c1nn(C)c2cc(-c3ccc(N4CCOCC4)c(Cl)c3)ccc12 (racemic) [QW-737]	1.7 µM	1 µM	1.7	8.6 min	7.4 min	275 min	6.6 min	86.4 ± 7.3%	–	–
COc1c(Cl)cc(-c2ccc3c(C(=O)NC(C)(C)C(C)OC(=O)CCl)nn(C)c3c2)cc1Cl (racemic) [QW-745]	1.8 µM	1.6 µM	1.1	19.5 min	13.0 min	245 min	25.4 min	55.4 ± 8.1%	–	–
Cn1nc(C(=O)NC(C)(C)COC(=O)CCl)c2ccccc21 [QW-312]	–	–	–	2.9 min	1.7 min	–	–	–	98 µM (≈ 31.7 µg/mL)	IC50 (HT-1080 cells; [8]): 5.4 µM; IC50 (HT-1080 cells; [9]): 76.3 µM; IC50 (HepG2 cells; [10]): 26.2 µM; IC50 (HepG2 cells; [11]): 180 µM; IC50 (Huh7 cells; [12]): 4.2 µM; IC50 (Huh7 cells; [13]): 122 µM; IC50 (HLF cells; compounds alone, read-out: IC50 (uM) HLF^a): 2.5 µM; IC50 (HLF cells; with fer-1, read-out: IC50 (uM) HLF^b): 58.1 µM; IC50 (SK-HEP-1 cells; [14]): 28.4 µM; IC50 (SK-HEP-1 cells; [15]): 202 µM; GPX4% inhibition at 20 (μM) (GPX4): 72.5 ± 6.7%; GPX4 inhibition (GPX4): complete inhibition; GPX4% inhibition at 200 (μM) (GPX4): 95.8 ± 4.0%
CC(C)(COC(=O)CCl)NC(=O)c1n[nH]c2cc(Br)ccc12 [QW-313]	–	–	–	9.7 min	12.1 min	–	–	–	47 µM (≈ 18.3 µg/mL)	IC50 (HT-1080 cells; [8]): 20.4 µM; IC50 (HT-1080 cells; [9]): 58.8 µM; IC50 (HepG2 cells; [10]): 12.8 µM; IC50 (HepG2 cells; [11]): 63.1 µM; IC50 (Huh7 cells; [12]): 17 µM; IC50 (Huh7 cells; [13]): 58.2 µM; IC50 (SK-HEP-1 cells; [14]): 47 µM; IC50 (SK-HEP-1 cells; [15]): 63.7 µM; GPX4% inhibition at 20 (μM) (GPX4): 53.8 ± 12.1%; GPX4 inhibition (GPX4): complete inhibition; GPX4% inhibition at 200 (μM) (GPX4): 97.6 ± 2.5%
COc1ccc(-c2ccc3c(C(=O)NC(C)(C)COC(=O)CCl)nn(C)c3c2)cc1 [QW-454]	11.5 µM	0.94 µM	12.2	1.8 min	1.7 min	–	–	–	2.9 µM (≈ 1.25 µg/mL)	ferroptosis induction / potency in HT-1080 cells, result in words (HT-1080 cells): sub-molar range cellular activities and decreased ferroptosis selectivity; Solubility [4, 16]: 2.9 µM (≈ 1.25 µg/mL); GPX4% inhibition at 5 μM (GPX4): 86.8 ± 2.6%
Cn1nc(C(=O)NC(C)(C)COC(=O)CCl)c2ccc(-c3cccc(Cl)c3)cc21 [QW-458]	24 µM	2 µM	12	1.9 min	1.9 min	–	–	–	6.1 µM (≈ 2.65 µg/mL)	Solubility [4, 16]: 6.1 µM (≈ 2.65 µg/mL); GPX4% inhibition at 5 μM (GPX4): 80.5 ± 3.0%
Cn1nc(C(=O)NC(C)(C)COC(=O)CCl)c2ccc(-c3csc4ccccc34)cc21 [QW-505]	–	–	–	1.7 min	1.8 min	10.2 min	6.3 min	–	<1.3 µM	Solubility [4, 16]: <1.3 µM; GPX4% inhibition at 5 μM (GPX4): 76.1 ± 4.0%
COc1ccc(-c2ccc3c(C(=O)NC(C)(C)CNC(=O)CCl)nn(C)c3c2)cc1Cl [QW-628]	–	–	–	15 min	19 min	243 min	311 min	33.6 ± 6.5%	–	–
COc1ccc(CNS(=O)(=O)c2ccc(-c3ccc4c(C(=O)NC(C)(C)COC(=O)CCl)nn(C)c4c3)cc2)cc1 [QW-658]	14.6 µM	3.5 µM	4.2	–	–	12.5 min	6.2 min	26.3 ± 63.2%	–	GPX4% inhibition at 5 μM (GPX4): 20.9 ± 14.0%
Cn1nc(C(=O)NC(C)(C)COC(=O)CCl)c2ccc(-c3ccc(OC(F)(F)F)c(Cl)c3)cc21 [QW-672]	18.2 µM	2.4 µM	7.6	17 min	19 min	47.9 min	4.7 min	68.0 ± 45.2%	–	–
Cn1nc(-n2cc(C(C)(C)COC(=O)CCl)nn2)c2ccc(-c3ccc(N4CCOCC4)c(Cl)c3)cc21 [QW-680]	12.1 µM	3 µM	4.0	28 min	26 min	67.4 min	3.2 min	57.3 ± 2.8%	–	–
COc1ccc(-c2ccc3c(C(=O)NC(COC(=O)CCl)C(F)(F)F)nn(C)c3c2)cc1Cl (stereo not drawn) [QW-686]	–	–	–	–	–	16.6 min	23.8 min	35.8 ± 14.3%	–	–
COc1ccc(-c2ccc3c(C(=O)NC(C)(C)C(C)(C)OC(=O)CCl)nn(C)c3c2)cc1Cl [QW-730]	5.7 µM	0.59 µM	9.7	6.6 min	10.7 min	318 min	385 min	98.4 ± 17.6%	–	ferroptosis induction / potency in HT-1080 cells, result in words (HT-1080 cells): sub-micromolar GI50 value
COc1c(Cl)cc(-c2ccc3c(C(=O)NC(C)(C)C(C)(C)OC(=O)CCl)nn(C)c3c2)cc1Cl [QW-750]	5.4 µM	1.6 µM	3.4	10.2 min	13.5 min	290 min	>1000 min	20.4 ± 3.6%	–	ferroptosis induction / potency in HT-1080 cells, result in words (HT-1080 cells): moderate potency
CC(C)(NC(=O)c1nn(Cc2ccc(Cl)cc2)c2cc(-c3ccc(N4CCOCC4)c(Cl)c3)ccc12)C(C)(C)OC(=O)CCl [QW-811]	–	–	–	–	–	–	–	–	–	Selectivity (HT-1080 cells; IC50 with Fer-1 / IC50): 45.4; IC50 (HT-1080 cells; with Fer-1, Table 10, read-out: IC50 (μM) HT1080 + Fer-1): 12.7 µM; IC50 (HT-1080 cells; without Fer-1, Table 10, read-out: IC50 (μM) HT1080): 0.28 µM; selectivity for DTPs vs PC9 parental cells, result in words [5]: selective and similar or stronger cytotoxicity to DTP cells; % Viability Persister ([5]; dose 1.0 μM): 93.00%; % Viability Persister ([5]; dose 10.0 μM): 4.75%; GPX4% inhibition at 2.5 μM (GPX4; 4th generation): 47.4 ± 8.9%
